Reference: patent publication US4582824A, “Method for inhibiting activities of platelet activating factor” (Takeda Chemical Industries, Ltd., priority 1983, dated 1986)

Key:
[1] = test system: circulatory shock due to PAF; test: Inhibitory activity against circulatory shock due to PAF in anesthetized dogs; type: in vivo, mongrel dogs
Experimental: Male and female mongrel dogs weighing 9 to 13 kg were used. Under pentobarital sodium ([…], i.v.) anesthesia and supportive respiration, a thoracotomy was performed at the left fourth interspace. The origin of the left coronary circumflex and the aortic arch were released, an electromagnetic probe was attached to each, and the coronary blood flow (CoF) and cardiac output (CO) were measured. Moreover, a polyethylene cannula was inserted from the apex of the heart into the left ventricle and the left ventricular pressure (LVP) was measured by means of a pressure transducer. In addition, its first-order differential dp/dt was determined by way of a differential circuit. The mean blood pressure (MBP) was continuously recorded on an ink-writing polygraph through a pressure transducer via a cannula inserted into the right femoral artery and the heart rate (HR) was similarly recorded via a tachometer driven by mean blood pressure pulse waves. PAF and the compound of Production Example 2 were respectively dissolved in physiological saline and administered via a cannula into the left femoral vein. After 1.0 μg/kg of PAF was intravenously administered and the respective parameters recovered to normal, the compound of Production Example 2 (10 mg/kg) was intravenously administered. After 10 minutes, 1.0 μg/kg of PAF was intravenously administered to estimate the anti-PAF activity of the compound of Production Example 2. All values are in percents relative to the values prior to PAF administration.

[2] = test system: PAF-induced platelet aggregation (washed PRP); test: Activity to inhibit PAF in platelet aggregation (washed PRP); type: cell-based, rabbit; conditions: Oryctolagus cuniculus, test compound 3×10^-5 M, PAF 3×10^-7 M, 37° C., read-out: Inhibition rate
Experimental: Using an injection syringe containing a 3.15% solution of citric acid (in a ratio of 1 part per 9 parts of blood) as an anticoagulant, the blood was directly collected from a male rabbit. Then, at room temperature, the blood was centrifuged at 1,000 r.p.m. for 10 minutes to harvest a platelet rich plasma (PRP). This PRP was further centrifuged at 1,400 r.p.m. for 15 minutes to give a platelet pellet. The pellet was suspended in Ca^++ -free Tyrode solution (containing 0.25% of gelatin) to give a washed PRP. This washed PRP (250 μl) was stirred at 37° C. for 2 minutes, then 25 μl of a 0.2 to 0.5 mM Ca^++ solution was added, and the mixture was further stirred for 30 seconds. Then, the test compound was added to the above platelet preparation to a level of 3×10^-5 M. After stirring the mixture for 2 minutes, 3×10^-7 M of PAF was added. The degree of platelet aggregation was determined with a platelet aggregometer (Rika Denki). The activity of the test compound was estimated from the inhibition rate as compared with the maximum optical transmission (maximum aggregation) of control PRP by PAF.

[3] = test system: PAF-induced respiratory (airway) stenosis; test: PAF-inhibiting activity in respiratory stenosis; type: in vivo, guinea pig (Hartley); conditions: for suppression of the airway stenosis response by PAF: 2 minutes before PAF 0.3 μg/kg i.v.
Experimental: Male and female Hartley strain guinea pigs weighing about 400 g were used. Under urethane anesthesia (1.5 g/kg, i.p.), each animal was immobilized in supine position and one shank of a tracheal cannula (of 4-shank type) was inserted into the airway, with two of the remaining three shanks being connected to a Harvard Apparatus rodent respirator and the remaining one shank to a bronchospasm transducer (Ugo-basile Model 7020). At an air volume of 5 to 7 ml per cycle, an air supply frequency of 70 times/min. and a lung loading pressure of 10 cm H2 O, the volume of overflowing air was recorded through the transducer on a rectigraph (Rectigraph-8S, Sanei Sokki K.K.). After gallamine triethodide (1 mg/kg, i.v.) treatment, […] of histamine 2HCl was intravenously administered to examine the response of the animal. When 0.3 μg/kg of PAF was intravenously administered to control group intravenously pretreated with physiological saline, a miximum airway stenosis was noted after 30 minutes and the amount of stenosis taking a complete stenosis as 100% was 72.8±4.3 (mean±S.D., for 6 cases). The compound of Production Example 2, when intravenously administered 2 minutes before at the dose levels of 0.3 and 1 mg/kg, suppressed the above response by PAF by 49% and 82%, respectively.

endotoxin-induced death = test: Preventive effect against endotoxin-induced death in mice; type: in vivo, mouse (ICR-Jcl); conditions: 10 mg/kg i.v. + endotoxin 15 mg/kg i.v.
Experimental: Male mice of ICR-Jcl strain, aged 5 weeks and with a body weight of about 30 g, were used in groups of 7 individuals. For the control group, 15 mg/kg of endotoxin was suspended in 0.1 ml/10 g of physiological saline and injected into the tail vein. For the compound (IA) treatment group, 10 mg/kg of the compound (IA) and 15 mg/kg of endotoxin were suspended in 0.1 ml/10 g of physiological saline and similarly injected into the tail vein. The mice were examined for death up to 20 hours after the treatment.

[4] = test system: endotoxin-induced blood pressure fall; test: Anti-endotoxin shock activity in rats; type: in vivo, rat (Sprague-Dawley); conditions: 10 mg/kg i.v., 10 minutes before endotoxin 15 mg/kg i.v., mean ± SD
Experimental: Male Sprague-Dawley rats weighing 500 to 600 g were used under pentobarbital sodium (50 mg/kg, i.v.) anesthesia. A cannula was inserted into the femoral artery and secured in position for measurement of blood pressure and another cannula into the femoral vein for administration of a solution of the drug. The blood pressure was measured via a pressure transducer and recorded on a polygraph. For a control group, a suspension of endotoxin (Lipopolysaccharide W. E. coli 0111: B4, Wako Pure Chemical) in physiological saline was administered into the femoral vein and the maximum hypotensive response occurring 3 to 5 minutes after administration was recorded. On the other hand, for the administration of 3-(N-n-octadecylcarbamoyloxy)-2-methoxypropyl 2-thiazolioethyl phosphate [hereinafter, compound (IA)], the compound (IA) was dissolved in physiological saline and administered into the femoral vein in a dose of 10 mg/kg. Ten (10) minutes after the administration of (IA), endotoxin was similarly administered and the maximum hypotensive response was recorded. The anti-endotoxin shock activity of the test compound was estimated from the difference in blood pressure response between the (IA) treatment group and the non-(IA)treatment group.

respiratory stenosis = conditions: compared with all the known compounds; cited from earlier work
platelet aggregation = conditions: compared with ADP and TXA2; cited from earlier work
[5] = PAF 1.0 μg/kg i.v. after pretreatment 10 mg/kg i.v., 0.5 min
[6] = PAF 1.0 μg/kg i.v. after pretreatment 10 mg/kg i.v., 1 min
[7] = PAF 1.0 μg/kg i.v. after pretreatment 10 mg/kg i.v., 5 min
[8] = PAF 1.0 μg/kg i.v. alone, 0.5 min
[9] = PAF 1.0 μg/kg i.v. alone, 1 min
[10] = PAF 1.0 μg/kg i.v. alone, 5 min

CCCCCCCCCCCCCCCCCCNC(=O)OCC(COP(=O)([O-])OCC[n+]1ccsc1)OC (stereo not shown) [Production Example 2, 3-(N-Octadecylcarbamoyloxy)-2-methoxypropyl 2-thiazolioethyl phosphate]
CO (percent of value prior to PAF) [1, 5]: 107 ± 4%
CoF (percent of value prior to PAF) [1, 5]: 109 ± 4%
DBP (percent of value prior to PAF) [1, 5]: 78 ± 5%
HR (percent of value prior to PAF) [1, 5]: 109 ± 2%
LVP (percent of value prior to PAF) [1, 5]: 92 ± 3%
MBP (percent of value prior to PAF) [1, 5]: 87 ± 7%
SBP (percent of value prior to PAF) [1, 5]: 90 ± 3%
max dp/dt (row head is a drawing; percent of value prior to PAF) [1, 5]: 94 ± 7%
CO (percent of value prior to PAF) [1, 6]: 99 ± 2%
CoF (percent of value prior to PAF) [1, 6]: 103 ± 3%
DBP (percent of value prior to PAF) [1, 6]: 99 ± 1%
HR (percent of value prior to PAF) [1, 6]: 105 ± 1%
LVP (percent of value prior to PAF) [1, 6]: 97 ± 3%
MBP (percent of value prior to PAF) [1, 6]: 99 ± 1%
SBP (percent of value prior to PAF) [1, 6]: 99 ± 1%
max dp/dt (row head is a drawing; percent of value prior to PAF) [1, 6]: 98 ± 2%
CO (percent of value prior to PAF) [1, 7]: 103 ± 5%
CoF (percent of value prior to PAF) [1, 7]: 97 ± 3%
DBP (percent of value prior to PAF) [1, 7]: 101 ± 2%
HR (percent of value prior to PAF) [1, 7]: 103 ± 3%
LVP (percent of value prior to PAF) [1, 7]: 100 ± 1%
MBP (percent of value prior to PAF) [1, 7]: 101 ± 2%
SBP (percent of value prior to PAF) [1, 7]: 102 ± 3%
max dp/dt (row head is a drawing; percent of value prior to PAF) [1, 7]: 102 ± 3%
inhibition at 30 µM [2]: 100%
suppression of the airway stenosis response by PAF ([3]; 0.3 mg/kg i.v.): 49%
suppression of the airway stenosis response by PAF ([3]; 1 mg/kg i.v.): 82%
Mortality within 20 hrs. (endotoxin-induced death): 14%
No. of deaths within 20 hrs. after drug administration, Deaths/survivals (endotoxin-induced death): 1/7
Max. hypotensive response after drug administration (-ΔmmHg) ([4]; listed as Compound (IA)): 15 ± 3 mmHg
Max. hypotensive response after drug administration (-ΔmmHg) ([4]; listed as compound (IA)): 15 mmHg

CCCCCCCCCCCCCCCCOCC(COP(=O)([O-])OCC[N+](C)(C)C)OC(C)=O (stereo not shown) [PAF, 1-O-alkyl-2-acetyl-sn-glyceryl-3-phosphorylcholine]
decrease of CO in words ([1]; PAF 1.0 μg/kg i.v.): particularly remarkable
heart rate (HR) change in words ([1]; PAF 1.0 μg/kg i.v.): only a slight decrease
time before the preadministration values were recovered ([1]; PAF 1.0 μg/kg i.v.): 60 min
CO (percent of value prior to PAF) [1, 8]: 93 ± 13%
CoF (percent of value prior to PAF) [1, 8]: 75 ± 3%
DBP (percent of value prior to PAF) [1, 8]: 58 ± 3%
HR (percent of value prior to PAF) [1, 8]: 96 ± 8%
LVP (percent of value prior to PAF) [1, 8]: 81 ± 1%
MBP (percent of value prior to PAF) [1, 8]: 62 ± 4%
SBP (percent of value prior to PAF) [1, 8]: 70 ± 5%
max dp/dt (row head is a drawing; percent of value prior to PAF) [1, 8]: 76 ± 8%
CO (percent of value prior to PAF) [1, 9]: 33 ± 3%
CoF (percent of value prior to PAF) [1, 9]: 77 ± 3%
DBP (percent of value prior to PAF) [1, 9]: 47 ± 3%
HR (percent of value prior to PAF) [1, 9]: 95 ± 8%
LVP (percent of value prior to PAF) [1, 9]: 59 ± 7%
MBP (percent of value prior to PAF) [1, 9]: 49 ± 5%
SBP (percent of value prior to PAF) [1, 9]: 52 ± 5%
max dp/dt (row head is a drawing; percent of value prior to PAF) [1, 9]: 50 ± 3%
CO (percent of value prior to PAF) [1, 10]: 35 ± 7%
CoF (percent of value prior to PAF) [1, 10]: 56 ± 2%
DBP (percent of value prior to PAF) [1, 10]: 67 ± 12%
HR (percent of value prior to PAF) [1, 10]: 89 ± 3%
LVP (percent of value prior to PAF) [1, 10]: 62 ± 6%
MBP (percent of value prior to PAF) [1, 10]: 63 ± 11%
SBP (percent of value prior to PAF) [1, 10]: 59 ± 9%
max dp/dt (row head is a drawing; percent of value prior to PAF) [1, 10]: 54 ± 7%
amount of stenosis taking a complete stenosis as 100% ([3]; PAF 0.3 μg/kg i.v., control group pretreated with saline, mean±S.D., 6 cases): 72.8±4.3%
activity in respiratory stenosis assay in words (respiratory stenosis): highest activity of all the known compounds
platelet aggregation activity in words (platelet aggregation): greater activity at lower concentrations
